Laboratory results as given in PubChem BioAssay AID1259407 (Chemical Carcinogenesis Research Information System (CCRIS), 2018).
Calls of active or inactive are those of the source. The rule behind the calls is not given here.

System: CCRIS mutagenicity, Ames/micronucleus/aberration tests
Assay: CCRIS mutagenicity studies
Details: Test System: AMES SALMONELLA TYPHIMURIUM

Measured: mutagenic call

O=C(O)CN(CCN(CC(=O)O)CC(=O)O)CC(=O)O
inactive: Strain/Indicator: TA97, Metabolic Activation: HAMSTER, LIVER, S-9, AROCLOR 1254 (10%), Method: PREINCUBATION inactive; negative | Strain/Indicator: TA97, Metabolic Activation: HAMSTER, LIVER, S-9, AROCLOR 1254 (30%), Method: PREINCUBATION inactive; negative | Strain/Indicator: TA97, Metabolic Activation: NONE, Method: PREINCUBATION inactive; negative | Strain/Indicator: TA97, Metabolic Activation: RAT, LIVER, S-9, AROCLOR 1254 (10%), Method: PREINCUBATION inactive; negative | Strain/Indicator: TA97, Metabolic Activation: RAT, LIVER, S-9, AROCLOR 1254 (30%), Method: PREINCUBATION inactive; negative | Strain/Indicator: TA97, Metabolic Activation: S-9, Method: PREINCUBATION inactive; negative | Strain/Indicator: TA98, Metabolic Activation: HAMSTER, LIVER, S-9, AROCLOR 1254 (10%), Method: PREINCUBATION inactive; negative | Strain/Indicator: TA98, Metabolic Activation: HAMSTER, LIVER, S-9, AROCLOR 1254 (30%), Method: PREINCUBATION inactive; negative | Strain/Indicator: TA98, Metabolic Activation: HAMSTER, LIVER, S-9, AROCLOR 1254, Method: STANDARD PLATE inactive; negative | Strain/Indicator: TA98, Metabolic Activation: NONE, Method: PREINCUBATION inactive; negative | Strain/Indicator: TA98, Metabolic Activation: NONE, Method: STANDARD PLATE inactive; negative | Strain/Indicator: TA98, Metabolic Activation: RAT LIVER S-9, PHENOBARBITAL AND BETA-NAPHTHOFLAVONE, Method: PREINCUBATION inactive; negative | Strain/Indicator: TA98, Metabolic Activation: RAT, LIVER, S-9, AROCLOR 1254 (10%), Method: PREINCUBATION inactive; negative | Strain/Indicator: TA98, Metabolic Activation: RAT, LIVER, S-9, AROCLOR 1254 (30%), Method: PREINCUBATION inactive; negative | Strain/Indicator: TA98, Metabolic Activation: RAT, LIVER, S-9, AROCLOR 1254, Method: STANDARD PLATE inactive; negative | Strain/Indicator: TA100, Metabolic Activation: HAMSTER, LIVER, S-9, AROCLOR 1254 (10%), Method: PREINCUBATION inactive; negative | Strain/Indicator: TA100, Metabolic Activation: HAMSTER, LIVER, S-9, AROCLOR 1254 (30%), Method: PREINCUBATION inactive; negative | Strain/Indicator: TA100, Metabolic Activation: HAMSTER, LIVER, S-9, AROCLOR 1254, Method: STANDARD PLATE inactive; negative | Strain/Indicator: TA100, Metabolic Activation: NONE, Method: PREINCUBATION inactive; negative | Strain/Indicator: TA100, Metabolic Activation: NONE, Method: STANDARD PLATE inactive; negative | Strain/Indicator: TA100, Metabolic Activation: RAT LIVER S-9, PHENOBARBITAL AND BETA-NAPHTHOFLAVONE, Method: PREINCUBATION inactive; negative | Strain/Indicator: TA100, Metabolic Activation: RAT, LIVER, S-9, AROCLOR 1254 (10%), Method: PREINCUBATION inactive; negative | Strain/Indicator: TA100, Metabolic Activation: RAT, LIVER, S-9, AROCLOR 1254 (30%), Method: PREINCUBATION inactive; negative | Strain/Indicator: TA100, Metabolic Activation: RAT, LIVER, S-9, AROCLOR 1254, Method: STANDARD PLATE inactive; negative | Strain/Indicator: TA102, Metabolic Activation: NONE, Method: PREINCUBATION inactive; negative | Strain/Indicator: TA102, Metabolic Activation: RAT LIVER S-9, PHENOBARBITAL AND BETA-NAPHTHOFLAVONE, Method: PREINCUBATION inactive; negative | Strain/Indicator: TA102, Metabolic Activation: S-9, Method: PREINCUBATION inactive; negative | Strain/Indicator: TA104, Metabolic Activation: NONE, Method: PREINCUBATION inactive; negative | Strain/Indicator: TA104, Metabolic Activation: RAT LIVER S-9, PHENOBARBITAL AND BETA-NAPHTHOFLAVONE, Method: PREINCUBATION inactive; negative | Strain/Indicator: TA1535, Metabolic Activation: HAMSTER, LIVER, S-9, AROCLOR 1254 (10%), Method: PREINCUBATION inactive; negative
